Experimental data taken from patent US7632783B2 (priority 2004, dated 2009).

test system: rice blast (Pyricularia oryzae); type: in vivo; settings: potted rice (variety Karakaze), spraying liquid 300 ppm after spore inoculation, observed 7 days after inoculation, levels 0 to 3

Q: “5-fluoro-3,3,4,4-tetramethyl-8b-(1-oxidequinoline-3-yl)-4,8b-dihydro-3H-oxazileno[3,2-a]isoquinoline [Example 198]” was tested. Which “degree of disease onset” value did it give?
A: 0

Q: For CC1(C)Cc2ccccc2C(c2cnc3ccccc3c2)=N1 [Example 6, 3-(3,3-dimethyl-3,4-dihydroisoquinolin-1-yl)quinoline], which “degree of disease onset” value is on record?
A: 0

Q: With CC1(C)Cc2ccccc2C(c2cnc3c(F)cccc3c2)=N1 [Example 7, 3-(3,3-dimethyl-3,4-dihydroisoquinolin-1-yl)-8-fluoroquinoline] as the compound, how does the “degree of disease onset” value read?
A: 0

Q: Cc1cccc2cc(C3=NC(C)(C)Cc4ccccc43)cnc12 [Example 9, 3-(3,3-dimethyl-3,4-dihydroisoquinolin-1-yl)-8-methylquinoline] was tested. Which “degree of disease onset” value did it give?
A: 0

Q: With CC1(C)Cc2cc(F)ccc2C(c2cnc3ccccc3c2)=N1 [Example 16, 3-(6-fluoro-3,3-dimethyl-3,4-dihydroisoquinolin-1-yl)quinoline] as the compound, how does the “degree of disease onset” value read?
A: 0

Q: Cc1cccc2c1CC(C)(C)N=C2c1cnc2ccccc2c1 [Example 26, 3-(3,3,5-trimethyl-3,4-dihydroisoquinolin-1-yl)quinoline] was tested. Which “degree of disease onset” value did it give?
A: 0

Q: CC1(C)Cc2c(cccc2-c2cccs2)C(c2cnc3ccccc3c2)=N1 [Example 32, 3-[5-(2-thienyl)-3,3-dimethyl-3,4-dihydroisoquinolin-1-yl]quinoline] was tested. Which “degree of disease onset” value did it give?
A: 0

Q: CC1(C)Cc2c(cccc2-c2ccsc2)C(c2cnc3ccccc3c2)=N1 [Example 33, 3-[5-(3-thienyl)-3,3-dimethyl-3,4-dihydroisoquinolin-1-yl]quinoline] was tested. Which “degree of disease onset” value did it give?
A: 0

Q: For CON=C(C)c1cccc2c1CC(C)(C)N=C2c1cnc2ccccc2c1 [Example 36, 1-(3,3-dimethyl-1-quinolin-3-yl-3,4-dihydroisoquinolin-5-yl)ethanone=O-methyloxime], which “degree of disease onset” value is on record?
A: 0

Q: With CCON=C(C)c1cccc2c1CC(C)(C)N=C2c1cnc2ccccc2c1 [Example 38, 1-(3,3-dimethyl-1-quinolin-3-yl-3,4-dihydroisoquinolin-5-yl)ethanone=O-ethyloxime] as the compound, how does the “degree of disease onset” value read?
A: 0

Q: How did the “degree of disease onset” value turn out when CCC1(C)Cc2ccccc2C(c2cnc3ccccc3c2)=N1 (stereo not shown) [Example 55, 3-(3-ethyl-3-methyl-3,4-dihydroisoquinolin-1-yl)quinoline] was run?
A: 0

Q: For CCCC1(C)Cc2ccccc2C(c2cnc3ccccc3c2)=N1 (stereo not shown) [Example 57, 3-(3-methyl-3-propyl-3,4-dihydroisoquinolin-1-yl)quinoline], which “degree of disease onset” value is on record?
A: 0

Q: CC(C)C1(C)Cc2ccccc2C(c2cnc3ccccc3c2)=N1 (stereo not shown) [Example 59, 3-(3-isopropyl-3-methyl-3,4-dihydroisoquinolin-1-yl)quinoline] was tested. Which “degree of disease onset” value did it give?
A: 0

Q: For CC(C)CC1(C)Cc2ccccc2C(c2cnc3ccccc3c2)=N1 (stereo not shown) [Example 60, 3-(3-isobutyl-3-methyl-3,4-dihydroisoquinolin-1-yl)quinoline], which “degree of disease onset” value is on record?
A: 0

Q: CC(C)CCC1(C)Cc2ccccc2C(c2cnc3ccccc3c2)=N1 (stereo not shown) [Example 62, 3-(3-isopentyl-3-methyl-3,4-dihydroisoquinolin-1-yl)quinoline] was tested. Which “degree of disease onset” value did it give?
A: 0

Q: How did the “degree of disease onset” value turn out when CCC1(CC)Cc2ccccc2C(c2cnc3ccccc3c2)=N1 [Example 63, 3-(3,3-diethyl-3,4-dihydroisoquinolin-1-yl)quinoline] was run?
A: 0

Q: With FC(F)(F)C1(c2ccccc2)Cc2ccccc2C(c2cnc3ccccc3c2)=N1 (stereo not shown) [Example 74, 3-(3-trifluoromethyl-3-phenyl-3,4-dihydroisoquinolin-1-yl)quinoline] as the compound, how does the “degree of disease onset” value read?
A: 0

Q: c1ccc2c(c1)CC1(CCCC1)N=C2c1cnc2ccccc2c1 [Example 80, 1′-quinolin-3-yl-4′H-spiro[cyclopentane-1,3′-isoquinoline]] was tested. Which “degree of disease onset” value did it give?
A: 0

Q: With Fc1cccc2c1CC1(CCCC1)N=C2c1cnc2ccccc2c1 [Example 81, 5′-fluoro-1′-quinolin-3-yl-4′H-spiro[cyclopentane-1,3′-isoquinoline]] as the compound, how does the “degree of disease onset” value read?
A: 0

Q: With Fc1ccc2c(c1)CC1(CCCC1)N=C2c1cnc2ccccc2c1 [Example 82, 6′-fluoro-1′-quinolin-3-yl-4′H-spiro[cyclopentane-1,3′-isoquinoline]] as the compound, how does the “degree of disease onset” value read?
A: 0

Q: Which “degree of disease onset” value does the source give for CC1CCC2(Cc3ccccc3C(c3cnc4ccccc4c3)=N2)C1 (stereo not shown) [Example 101, 1′-quinolin-3-yl-4′H-spiro[(3-methylcyclopentane)-1,3′-isoquinoline]] here?
A: 0

Q: Which “degree of disease onset” value does the source give for CC1(C)Cc2c(F)cccc2C(c2cnc3ccccc3c2)=N1.O=S(=O)(O)O [Example 104, 3-(5-fluoro-3,3-dimethyl-3,4-dihydroisoquinolin-1-yl)quinoline sulfate] here?
A: 0

Q: Which “degree of disease onset” value does the source give for CC1(C)Cc2c(F)cccc2C(c2cnc3ccccc3c2)=N1.O=[N+]([O-])O [Example 105, 3-(5-fluoro-3,3-dimethyl-3,4-dihydroisoquinolin-1-yl)quinoline nitrate] here?
A: 0

Q: How did the “degree of disease onset” value turn out when CC1(C)Cc2c(F)cccc2C(c2cnc3ccccc3c2)=N1.O=C(O)C(=O)O [Example 106, 3-(5-fluoro-3,3-dimethyl-3,4-dihydroisoquinolin-1-yl)quinoline oxalate] was run?
A: 0

Q: With CON=Cc1cccc2c1CC(C)(C)N=C2c1cnc2ccccc2c1 [Example 117, 1-(3,3-dimethyl-1-quinolin-3-yl-3,4-dihydroisoquinolin-5-yl)methanone=O-methyloxime] as the compound, how does the “degree of disease onset” value read?
A: 0

Q: How did the “degree of disease onset” value turn out when CC1c2ccccc2C(c2cnc3ccccc3c2)=NC1(C)C (stereo not shown) [Example 119, 3-(3,3,4-trimethyl-3,4-dihydroisoquinolin-1-yl)quinoline] was run?
A: 0

Q: With CC1(C)Cc2c(cccc2C(F)F)C(c2cnc3ccccc3c2)=N1 [Example 132, 3-(5-difluoromethyl-3,3-dimethyl-3,4-dihydroisoquinolin-1-yl)quinoline] as the compound, how does the “degree of disease onset” value read?
A: 0

Q: CC1(C)N=C(c2cnc3ccccc3c2)c2ccc(F)cc2C1(C)C [Example 150, 3-(6-fluoro-3,3,4,4-tetramethyl-3,4-dihydroisoquinolin-1-yl)quinoline] was tested. Which “degree of disease onset” value did it give?
A: 0

Q: With Cc1cccc2c1C(C)(C)C(C)(C)N=C2c1cnc2ccccc2c1 [Example 160, 3-(3,3,4,4,5-pentamethyl-3,4-dihydroisoquinolin-1-yl)quinoline] as the compound, how does the “degree of disease onset” value read?
A: 0

Q: With c1ccc2c(c1)C(c1cnc3ccccc3c1)=NCC21CCC1 [Example 171, 1′-quinolin-3-yl-4′H-spiro[cyclobutane-1,4′-isoquinoline]] as the compound, how does the “degree of disease onset” value read?
A: 0

Q: CC1(C)N=C(c2cnc3ccccc3c2)c2cccc(F)c2C1(C)O (stereo not shown) [Example 181, 3-(5-fluoro-4-hydroxy-3,3,4-trimethyl-3,4-dihydroisoquinolin-1-yl)quinoline] was tested. Which “degree of disease onset” value did it give?
A: 0

Q: Which “degree of disease onset” value does the source give for COC1(C)c2c(F)cccc2C(c2cnc3ccccc3c2)=NC1(C)C (stereo not shown) [Example 183, 3-(5-fluoro-4-methoxy-3,3,4-trimethyl-3,4-dihydroisoquinolin-1-yl)quinoline] here?
A: 0

Q: CC1c2ccccc2C(c2cnc3ccccc3c2)=[N+]([O-])C1(C)C (stereo not shown) [Example 206, 3-(3,3,4-trimethyl-2-oxide-3,4-dihydroisoquinolin-1-yl)quinoline] was tested. Which “degree of disease onset” value did it give?
A: 0

Q: For CC1(C)Cc2c(F)cccc2C(c2cnc3ccccc3c2)=[N+]1[O-] [Example 208, 3-(5-fluoro-3,3-dimethyl-2-oxide-3,4-dihydroisoquinolin-1-yl)quinoline], which “degree of disease onset” value is on record?
A: 0
